Experimental data reported in US4988517A, “Method and composition for inhibiting colon carcinogenesis” (American Health Foundation, priority 1988, dated 1991).

Legend:
[1] = test system: carcinogenesis induced by chemicals; conditions: experimental animals; cited from earlier work
[2] = test system: azoxymethane-induced small intestinal tumors; experiment: AOM-induced small intestinal tumor incidence and multiplicity; format: in vivo, male F344 rats
Excerpt: (§1) Experimental Procedure. Male F344 rats received at weaning were quarantined for 10 days and given access to AIN-76A semipurified diet (control diet). They were then be randomly allocated by weight to one of three dietary groups (control diet and 25 ppm BSC and 25 ppm benzylthiocyanate ("BTC") diets). […] Therefore one of our goals was to compare BSC with its sulfur analog BTC. Each dietary group was divided into AOM-treated (27 animals per subgroup) and vehicle-treated (12 animals per subgroup) subgroups and housed in plastic cages with filter tops in the animal holding room under controlled environmental conditions.
(§2) Beginning at 5 wk of age, groups of rats fed the control diet were transferred to diets containing 25 ppm BSC or 25 ppm BTC. At 7 wk of age, the animals in each group, except the vehicle-treated controls, received two weekly s.c. injections of AOM at a dose level of 15 mg/kg body weight/wk. Vehicle controls were treated with an equal volume of normal saline. One wk after AOM or saline treatment, animals receiving the BSC and BTC diets were transferred to the control diets and continued on this diet until the termination of the experiment. The 1-wk delay before transferring to control diet was to ensure complete metabolism and excretion of the carcinogen. The animals receiving the control diet continued on the same diet. The experiment was terminated 34 wk after the last AOM injection.
(§3) Both AOM-and vehicle-treated animals were sacrificed by CO2 euthanasia. Following laparotomy, the entire stomach, small intestine, and large intestine were resected and opened longitudinally, and the contents flushed with normal saline. The location, number, and size of the colon and small intestinal tumors were noted grossly under the dissection microscope. All other organs, including liver and kidneys, were also examined grossly for tumors. Tissues were fixed in 10% buffered formalin, embedded in paraffin blocks, and processed by routine histological methods with the use of eosin and hematoxylin stains.
(§4) Statistical Analysis. The data on tumor incidence were analyzed statistically by the x^2 method and Fischer's exact probability test, and tumor multiplicity was analyzed by Student's t test. Biochemical results were analyzed by Student's t test.
(§5) Using the above-identified procedures, a study was made of the effect of feeding benzylselenocyanate and its sulfur analogue, benzylthiocyanate, two (2) weeks before, during and until one (1) week after carcinogen administration (initiation phase) on intestinal carcinogenesis induced by azoxymethane (CAS: 25843-45-2) in male F344 rats.

[3] = test system: azoxymethane-induced ear duct tumors; experiment: AOM-induced ear duct tumor incidence; format: in vivo, male F344 rats; conditions: 25 ppm in diet
Excerpt: as §1, §2
as §3, with “Tissues were fixed in 10% buffered formalin, embedded in paraffin blocks, and processed by routine histological methods with the use of eosin and hematoxylin stains.” left out
as §4

[4] = test system: azoxymethane-induced colon tumors; experiment: AOM-induced colon tumor incidence and multiplicity (initiation phase feeding); format: in vivo, male F344 rats
Excerpt: as §1, §2, §3, §4, §5

[5] = General toxicity observation in rats fed the diets; format: in vivo, male F344 rats; conditions: 25 ppm in diet
Excerpt: as §1, §2
(§6) Body weights were recorded weekly until the animals reach 16 wk of age and then every 4 wk. Six vehicle-treated animals randomly chosen from each dietary group while they were consuming experimental and control diets were used for tissue and blood plasma glutathione peroxidase analysis.

[6] = test system: non-selenium-dependent glutathione peroxidase; experiment: Non-selenium-dependent glutathione peroxidase activity in tissues of rats fed the diets; format: in vivo, male F344 rats; conditions: among the dietary groups
Description: as §6
Biochemical Determination. For the determination of tissue and blood plasma glutathione peroxidase activity, 6 vehicle-treated animals from each dietary group, while the animals were on experimental and control diets, were used. Before sacrificing the animals, blood was obtained under ether anesthesia by cardiac puncture with a syringe. They were then decapitated,and liver, kidneys, small intestine, and colon were rapidly removed. The liver was perfused with ice-cold normal saline. […]
Glutathione peroxidase activity was determined spectrophotometrically according to a modification of the enzyme-coupled assay procedure of Paglia and Valentine. […] Total glutathione peroxide was measured with cumene hydroperoxide as a substrate. Selenium-dependent glutathione peroxide was measured with tert-butyl hydroperoxide. […] Absorbance was measured at 340 nm, and activity was measured from the slope of the lines as mol NADPH oxidized/min/mg protein. […] Protein concentration in the cytosol fraction was measured by the method of Lowry et al. with bovine serum albumin as standard.

[7] = test system: selenium-dependent glutathione peroxidase; experiment: Selenium-dependent glutathione peroxidase activity in tissues of rats fed the diets; format: in vivo, male F344 rats
Description: as §6
Biochemical Determination. For the determination of tissue and blood plasma glutathione peroxidase activity, 6 vehicle-treated animals from each dietary group, while the animals were on experimental and control diets, were used. Before sacrificing the animals, blood was obtained under ether anesthesia by cardiac puncture with a syringe. They were then decapitated,and liver, kidneys, small intestine, and colon were rapidly removed. The liver was perfused with ice-cold normal saline. The small intestine and colon were slit open longitudinally and freed from all the contents, and the mucosa was scraped with a microscope glass slide. The liver and kidneys were trimmed free of connective tissue, minced with scissors, and homogenized for 10 s in 3 volumes of buffer, pH 7.3 (0.25 sucrose-10 mM EDTA-50 mM potassium phosphate) using a Brinkman Polytron at low speed. The colonic and small intestinal mucosal scrapings were immediately placed into 3 volumes of the same buffer and homogenized similarly. The homogenates were centrifuged in a Sorvall RC-2B centrifuge at 10,000×g, 4° C., for 20 min. The supernatant was centrifuged in a Beckman Ultracentrifuge at 100,000×g, 4° C., for 1 h. The resulting cytosol fraction was used for determination of glutathione peroxidase activity and protein.
Glutathione peroxidase activity was determined spectrophotometrically according to a modification of the enzyme-coupled assay procedure of Paglia and Valentine. The reaction mixture consisted of 50 mM potassium phosphate buffer (pH 7.0), 1 mM EDTA, 0.2 mM NADPH, 1 enzyme unit/ml oxidized glutathione-reductase, 1 mM glutathione, and 1.5 mM cumene hydroperoxide in a total volume of 1 ml. The cytosol was added to the above mixture and allowed to incubate 5 min. at room temperature. Total glutathione peroxide was measured with cumene hydroperoxide as a substrate. Selenium-dependent glutathione peroxide was measured with tert-butyl hydroperoxide. The reaction was started with the addition of substrate solution. Absorbance was measured at 340 nm, and activity was measured from the slope of the lines as mol NADPH oxidized/min/mg protein. Blank reactions without cytosol were run simultaneously. Protein concentration in the cytosol fraction was measured by the method of Lowry et al. with bovine serum albumin as standard.
as §4

[8] = test system: azoxymethane-induced metastasis; experiment: AOM-induced metastasis; format: in vivo, male F344 rats
Excerpt: as §1, §2, §3

[9] = Body weights of male F344 rats fed the experimental diets; format: in vivo; conditions: for Body wt, Initial (Wk 0) / Body wt, wk 4 / Body wt, wk 8 / Body wt, wk 16 / Body wt, wk 22 / Body wt, wk 30 / Body wt, wk 37 (at termination): 25 ppm in diet, Mean ± SD
Excerpt: as §1, §2, §6

[10] = 25 ppm in diet 2 wk before to 1 wk after AOM
[11] = 25 ppm in diet, 27 (BSC) or 26 (BTC) animals/group
[12] = 25 ppm in diet 5 wk, Mean ± SE (n = 6)

**Q.** For `N#CSCc1ccccc1` [BTC, benzylthiocyanate, reference compound], which “Inhibition of chemically induced carcinogenesis” value [1] is on record?
**A.** inhibitor of carcinogenesis induced by chemicals in experimental animals

**Q.** What about the “Small intestinal tumor incidence, Adenocarcinoma” value [2, 10] of the same compound?
**A.** 38 % of animals with tumors

**Q.** And the “Small intestinal tumor incidence, Adenoma” value [2, 10]?
**A.** 12 % of animals with tumors

**Q.** What about the “Small intestinal tumor incidence, Total” value [2, 10] of the same compound?
**A.** 38 % of animals with tumors

**Q.** And the “Number of animals with small intestinal tumors, Adenocarcinoma” value [2, 11]?
**A.** 10 number of animals

**Q.** What about the “Number of animals with small intestinal tumors, Adenoma” value [2, 11] of the same compound?
**A.** 3 number of animals

**Q.** And the “Number of animals with small intestinal tumors, Total” value [2, 11]?
**A.** 10 number of animals

**Q.** And the “Small intestinal tumor multiplicity, Adenocarcinoma” value ([2]; 25 ppm in diet, Mean ± SD)?
**A.** 0.34 0.6 no. of tumors/animal

**Q.** What about the “Small intestinal tumor multiplicity, Adenoma” value ([2]; 25 ppm in diet, Mean ± SD) of the same compound?
**A.** 0.12 0.3 no. of tumors/animal

**Q.** And the “Small intestinal tumor multiplicity, Total” value ([2]; 25 ppm in diet, Mean ± SD)?
**A.** 0.46 0.6 no. of tumors/animal

**Q.** What about the “Number of animals with ear duct tumors” value ([3]; 27 (BSC) or 26 (BTC) animals/group) of the same compound?
**A.** 5 animals

**Q.** And the “% of animals with ear duct tumors” value ([3]; AOM treated)?
**A.** 19 % of animals

**Q.** And the “Colon tumor incidence, Adenocarcinoma” value [4, 10]?
**A.** 31 % of animals with tumors

**Q.** What about the “Colon tumor incidence, Adenoma” value [4, 10] of the same compound?
**A.** 62 % of animals with tumors

**Q.** What about the “Colon tumor incidence, Total (adenomas plus adenocarcinomas)” value [4, 10] of the same compound?
**A.** 69 % of animals with tumors

**Q.** What about the “Number of animals with colon tumors, Adenocarcinoma” value [4, 11] of the same compound?
**A.** 8 number of animals

**Q.** What about the “Number of animals with colon tumors, Adenoma” value [4, 11] of the same compound?
**A.** 16 number of animals

**Q.** And the “Number of animals with colon tumors, Total” value [4, 11]?
**A.** 18 number of animals

**Q.** And the “Colon tumor multiplicity, Adenocarcinoma” value ([4]; 25 ppm in diet, Mean ± SD)?
**A.** 0.35 ± 0.4 no. of tumors/animals

**Q.** And the “Colon tumor multiplicity, Adenoma” value ([4]; 25 ppm in diet, Mean ± SD)?
**A.** 1.27 ± 1.3 no. of tumors/animals

**Q.** And the “Colon tumor multiplicity, Total” value ([4]; 25 ppm in diet, Mean ± SD)?
**A.** 1.62 ± 1.3 no. of tumors/animals

**Q.** And the “Number of tumors per group, colon Adenocarcinoma” value ([4]; 25 ppm in diet, in parentheses)?
**A.** 9 number of tumors per group

**Q.** What about the “Incidence of total colon tumors (in words)” value ([4]; vs control diet) of the same compound?
**A.** no differences in colon tumor incidences between the animals fed the control diet and BTC diet

**Q.** What about the “Death after AOM treatment” value ([5]; 2 wk after AOM treatment) of the same compound?
**A.** One

**Q.** And the “Evidence of toxicity in animals fed the diet” value [5]?
**A.** no evidence of toxicity

**Q.** And the “Non-selenium-dependent glutathione peroxidase activity (in words)” value [6]?
**A.** no differences in the activity of non-selenium-dependent glutathione peroxidase activity among the dietary groups

**Q.** And the “Selenium-dependent glutathione peroxidase activity, Kidney” value [7, 12]?
**A.** 0.64 0.30 μmol NADPH oxidized/min/mg protein

**Q.** And the “Selenium-dependent glutathione peroxidase activity, Liver” value [7, 12]?
**A.** 1.90 0.66 μmol NADPH oxidized/min/mg protein

**Q.** What about the “Selenium-dependent glutathione peroxidase activity, Plasma” value [7, 12] of the same compound?
**A.** 0.69 0.16 μmol NADPH oxidized/min/mg protein

**Q.** What about the “Selenium-dependent glutathione peroxidase activity, Colon” value ([7]; 25 ppm in diet 5 wk, colonic mucosa, Mean ± SE (n = 6)) of the same compound?
**A.** 0.23 0.06 μmol NADPH oxidized/min/mg protein

**Q.** What about the “Selenium-dependent glutathione peroxidase activity, Small intestine” value ([7]; 25 ppm in diet 5 wk, small intestinal mucosa, Mean ± SE (n = 6)) of the same compound?
**A.** 0.20 0.10 μmol NADPH oxidized/min/mg protein

**Q.** And the “Selenium-dependent glutathione peroxidase activity (in words)” value ([7]; liver and plasma)?
**A.** not affected

**Q.** What about the “No. of animals with metastasis” value ([8]; 25 ppm in diet, AOM treated) of the same compound?
**A.** 0 No. of animals

**Q.** And the “AOM-induced metastasis (in words)” value ([8]; several organs)?
**A.** none of the animals in BSC and BTC diet groups developed metastasis

**Q.** What about the “Body weights of animals fed experimental vs control diets” value ([9]; AOM or vehicle treated, in words) of the same compound?
**A.** comparable

**Q.** And the “Body wt, Initial (Wk 0)” value ([9]; AOM treated)?
**A.** 40 ± 3 g

**Q.** And the “Body wt, wk 4” value ([9]; AOM treated)?
**A.** 180 ± 10 g

**Q.** What about the “Body wt, wk 8” value ([9]; AOM treated) of the same compound?
**A.** 281 ± 18 g

**Q.** And the “Body wt, wk 16” value ([9]; AOM treated)?
**A.** 356 ± 21 g

**Q.** What about the “Body wt, wk 22” value ([9]; AOM treated) of the same compound?
**A.** 394 ± 22 g

**Q.** And the “Body wt, wk 30” value ([9]; AOM treated)?
**A.** 432 ± 24 g

**Q.** What about the “Body wt, wk 37 (at termination)” value ([9]; AOM treated) of the same compound?
**A.** 459 ± 19 g

**Q.** And the “Body wt, Initial (Wk 0)” value ([9]; Vehicle treated)?
**A.** 40 ± 3 g

**Q.** What about the “Body wt, wk 4” value ([9]; Vehicle treated) of the same compound?
**A.** 182 ± 10 g

**Q.** And the “Body wt, wk 8” value ([9]; Vehicle treated)?
**A.** 286 ± 18 g

**Q.** What about the “Body wt, wk 16” value ([9]; Vehicle treated) of the same compound?
**A.** 362 ± 21 g

**Q.** And the “Body wt, wk 22” value ([9]; Vehicle treated)?
**A.** 406 ± 22 g

**Q.** And the “Body wt, wk 30” value ([9]; Vehicle treated)?
**A.** 449 ± 24 g

**Q.** What about the “Body wt, wk 37 (at termination)” value ([9]; Vehicle treated) of the same compound?
**A.** 470 ± 24 g
